The values that follow come from PubChem BioAssay AID248 (DTP/NCI, 2004).

The assay concerns L1210 leukemia ip in BDF1 mice, survival T/C. The experiment in a line: NCI In Vivo Anticancer Drug Screen. Data for tumor model L1210 Leukemia (intraperitoneal) in B6D2F1 (BDF1) mice. The note with it: endpoint: mean survival time, higher = longer survival. The procedure, abridged:
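Tumor was transplanted into mice, which were then dosed with test compound or vehicle alone. Survival was recorded for each group, and the treated figure was expressed relative to the control figure.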

Where [1] appears, read: dose: 100.0 mg/kg/injection, schedule: Q01DX009 (ip), vehicle: saline.
Where [2] appears, read: dose: 200.0 mg/kg/injection, schedule: Q01DX009 (ip), vehicle: saline.
[3] abbreviates: dose: 100.0 mg/kg/injection, schedule: Q01DX009 (ip), vehicle: saline with Tween-80.
Where [4] appears, read: dose: 100.0 mg/kg/injection, schedule: Q04DX003 (ip), vehicle: saline with Tween-80.
[5] abbreviates: dose: 200.0 mg/kg/injection, schedule: Q01DX009 (ip), vehicle: saline with Tween-80.
The mark [6] stands for this setting: dose: 200.0 mg/kg/injection, schedule: Q04DX003 (ip), vehicle: saline with Tween-80.
Setting [7] is: dose: 400.0 mg/kg/injection, schedule: Q04DX003 (ip), vehicle: saline with Tween-80.
The mark [8] stands for this setting: dose: 50.0 mg/kg/injection, schedule: Q01DX009 (ip), vehicle: saline with Tween-80.
Where [9] appears, read: dose: 100.0 mg/kg/injection, schedule: Q04DX003 (ip), vehicle: Klucel (hydroxypropylcellulose) (HPC).
The mark [10] stands for this setting: dose: 200.0 mg/kg/injection, schedule: Q04DX003 (ip), vehicle: Klucel (hydroxypropylcellulose) (HPC).
Setting [11] is: dose: 400.0 mg/kg/injection, schedule: Q04DX003 (ip), vehicle: Klucel (hydroxypropylcellulose) (HPC).
Where [12] appears, read: dose: 100.0 mg/kg/injection, schedule: Q01DX009 (ip), vehicle: Klucel (hydroxypropylcellulose) (HPC).
Where [13] appears, read: dose: 100.0 mg/kg/injection, schedule: Q04DX002 (ip), vehicle: Klucel (hydroxypropylcellulose) (HPC).
Setting [14] is: dose: 200.0 mg/kg/injection, schedule: Q04DX002 (ip), vehicle: Klucel (hydroxypropylcellulose) (HPC).
The mark [15] stands for this setting: dose: 400.0 mg/kg/injection, schedule: Q04DX002 (ip), vehicle: Klucel (hydroxypropylcellulose) (HPC).
Where [16] appears, read: dose: 200.0 mg/kg/injection, schedule: Q01DX009 (ip), vehicle: Klucel (hydroxypropylcellulose) (HPC).
[17] abbreviates: dose: 400.0 mg/kg/injection, schedule: Q01DX009 (ip), vehicle: Klucel (hydroxypropylcellulose) (HPC).

SMILES strings stand for the structures. Inconclusive results and toxic doses are left out.

In the case of `CC(C)(C)CNC(=S)Nc1ccccc1`, the T/C was 98 % of control (dose: 9.5 mg/kg/injection, schedule: Q01DX001 (ip), vehicle: other); 102 % of control (dose: 19.0 mg/kg/injection, schedule: Q01DX001 (ip), vehicle: other); 104 % of control (dose: 38.0 mg/kg/injection, schedule: Q01DX001 (ip), vehicle: other); 90 % of control (dose: 75.0 mg/kg/injection, schedule: Q01DX001 (ip), vehicle: other).
`O=c1sc(N=Nc2ccccc2)nn1-c1ccccc1`: the T/C runs as follows: (dose: 50.0 mg/kg/injection, schedule: Q01DX009 (ip), vehicle: saline) 91 % of control; under setting [1], 88 % of control; under setting [2], 93 % of control.
`CC(=O)Nc1cc(C(=O)O)cc(C(F)(F)F)c1`: the T/C is 96 % of control under setting [3]; 96 % of control under setting [4]; 100 % of control under setting [5]; 102 % of control under setting [6]; 97 % of control (dose: 400.0 mg/kg/injection, schedule: Q01DX009 (ip), vehicle: saline with Tween-80); 94 % of control under setting [7].
Turning to `CN(C)c1ccc(C=C(Cl)Cl)cc1`, the T/C was 108 % of control (dose: 50.0 mg/kg/injection, schedule: Q01DX005 (ip), vehicle: other); 96 % of control (dose: 50.0 mg/kg/injection, schedule: Q01DX009 (ip), vehicle: other); 108 % of control (dose: 100.0 mg/kg/injection, schedule: Q01DX005 (ip), vehicle: other); 107 % of control (dose: 100.0 mg/kg/injection, schedule: Q01DX009 (ip), vehicle: other); 112 % of control (dose: 200.0 mg/kg/injection, schedule: Q01DX005 (ip), vehicle: other); 100 % of control (dose: 200.0 mg/kg/injection, schedule: Q01DX009 (ip), vehicle: other).
In the case of `Cc1n[nH]c(=S)n1N`, the T/C was 115 % of control under setting [4], 102 % of control under setting [6] and 96 % of control under setting [7].
`O=c1[nH]ncc(Cl)c1Cl`: the T/C was 92 % of control (dose: 12.5 mg/kg/injection, schedule: Q01DX009 (ip), vehicle: saline with Tween-80); 95 % of control (dose: 25.0 mg/kg/injection, schedule: Q01DX009 (ip), vehicle: saline with Tween-80); 106 % of control under setting [8]; 87 % of control under setting [3]; 87 % of control under setting [5].
Consider `C=C1C=C(C)N(C(=O)c2ccccc2Br)CCN1C(=O)c1ccccc1Br`, for which the T/C by setting is: under setting [9], 96 % of control; under setting [10], 105 % of control; under setting [11], 100 % of control.
Turning to `CC(C)(C)OC(=O)NC(CC(=O)OCc1ccccc1)C(=O)O` (centres undefined), the T/C is 87 % of control under setting [12], 93 % of control under setting [9], 95 % of control under setting [10] and 106 % of control under setting [11].
With `O=S1OCC2(CO1)COS(=O)OC2` (centres undefined), the T/C reads like this: (dose: 1.56 mg/kg/injection, schedule: Q01DX009 (ip), vehicle: saline) 103 % of control; (dose: 1.56 mg/kg/injection, schedule: Q04DX003 (ip), vehicle: saline) 95 % of control; (dose: 3.12 mg/kg/injection, schedule: Q01DX009 (ip), vehicle: saline) 98 % of control; (dose: 3.12 mg/kg/injection, schedule: Q04DX003 (ip), vehicle: saline) 101 % of control; (dose: 6.25 mg/kg/injection, schedule: Q04DX003 (ip), vehicle: saline) 104 % of control.
For `O=C(O)COc1cc(Cl)ccn1`, the T/C reads like this: under setting [13], 100 % of control; under setting [14], 93 % of control; under setting [15], 110 % of control.
For the compound `O=C(Nc1cccc([N+](=O)[O-])c1)c1cccc(C(=O)Nc2cccc([N+](=O)[O-])c2)c1`, the T/C is, setting by setting: under setting [12], 94 % of control; under setting [16], 89 % of control; under setting [17], 89 % of control.
As to `O=C(Nc1ccc(CCO)cc1)Nc1cccc(Cl)c1Cl`, the T/C under setting [12] is 91 % of control, the T/C under setting [16] was 91 % of control and the T/C under setting [17] is 100 % of control.
In the case of `O=S1(=O)CCC(NCCSS(=O)(=O)O)CC1`, the T/C under setting [4] was 96 % of control, the T/C under setting [6] is 96 % of control and the T/C under setting [7] is 104 % of control.
As for `CCCCCSC`, the T/C is 93 % of control under setting [1]; 102 % of control (dose: 100.0 mg/kg/injection, schedule: Q04DX003 (ip), vehicle: saline); 95 % of control under setting [2]; 105 % of control (dose: 200.0 mg/kg/injection, schedule: Q04DX003 (ip), vehicle: saline); 88 % of control (dose: 400.0 mg/kg/injection, schedule: Q01DX009 (ip), vehicle: saline); 100 % of control (dose: 400.0 mg/kg/injection, schedule: Q04DX003 (ip), vehicle: saline).
For the compound `CC1C(=O)OC(C)(C)OC1=O`, the T/C reads like this: (dose: 25.0 mg/kg/injection, schedule: Q01DX009 (ip), vehicle: Klucel (hydroxypropylcellulose) (HPC)) 99 % of control; (dose: 50.0 mg/kg/injection, schedule: Q01DX009 (ip), vehicle: Klucel (hydroxypropylcellulose) (HPC)) 100 % of control; under setting [12], 98 % of control; under setting [16], 94 % of control; under setting [17], 103 % of control.
As for `CC(=O)OCC(=O)C12OC1CC1C3CCC4CC(=O)CCC4(C)C3CC(=O)C12C` (centres undefined), the T/C was 89 % of control (dose: 100.0 mg/kg/injection, schedule: Q01DX001 (ip), vehicle: other); 90 % of control (dose: 200.0 mg/kg/injection, schedule: Q01DX001 (ip), vehicle: other); 97 % of control (dose: 400.0 mg/kg/injection, schedule: Q01DX001 (ip), vehicle: other).
Consider `c1cc[c]([Sn]([c]2ccccc2)([c]2ccccc2)[c]2ccccc2)cc1`, for which the T/C by setting is: under setting [8], 95 % of control; under setting [3], 90 % of control; under setting [5], 100 % of control.
Turning to `O=C(O)C(Oc1ccc(Cl)cc1Cl)C(Oc1ccc(Cl)cc1Cl)C(=O)O` (centres undefined), the T/C (dose: 100.0 mg/kg/injection, schedule: Q04DX002 (ip), vehicle: carboxymethylcellulose (CMC)) is 98 % of control; the T/C (dose: 200.0 mg/kg/injection, schedule: Q04DX002 (ip), vehicle: carboxymethylcellulose (CMC)) is 88 % of control; the T/C under setting [15] was 155 % of control; the T/C (dose: 400.0 mg/kg/injection, schedule: Q04DX002 (ip), vehicle: carboxymethylcellulose (CMC)) was 92 % of control; the T/C (dose: 800.0 mg/kg/injection, schedule: Q04DX002 (ip), vehicle: carboxymethylcellulose (CMC)) is 98 % of control.
Take `NC(=O)N(CCCO)/N=C\c1ccc([N+](=O)[O-])o1`: the T/C runs as follows: under setting [13], 100 % of control; under setting [14], 96 % of control.
With `Cc1c[nH]c2nccnc12`, the T/C by setting is: (dose: 100.0 mg/kg/injection, schedule: Q01DX009 (ip), vehicle: water) 102 % of control; (dose: 100.0 mg/kg/injection, schedule: Q04DX003 (ip), vehicle: water) 108 % of control; (dose: 200.0 mg/kg/injection, schedule: Q01DX009 (ip), vehicle: water) 96 % of control; (dose: 200.0 mg/kg/injection, schedule: Q04DX003 (ip), vehicle: water) 98 % of control; (dose: 400.0 mg/kg/injection, schedule: Q01DX009 (ip), vehicle: water) 105 % of control; (dose: 400.0 mg/kg/injection, schedule: Q04DX003 (ip), vehicle: water) 101 % of control.
For `Cc1ccc(S(=O)(=O)CN2CCC(=O)c3ccccc32)cc1`, the T/C was 104 % of control (dose: 75.0 mg/kg/injection, schedule: Q01DX001 (ip), vehicle: saline); 101 % of control (dose: 150.0 mg/kg/injection, schedule: Q01DX001 (ip), vehicle: saline); 93 % of control (dose: 300.0 mg/kg/injection, schedule: Q01DX001 (ip), vehicle: saline).
